We go through 3 compounds from patent publication US20240175029A1, “RNA INHIBITOR FOR INHIBITING HEPATITIS B VIRUS GENE EXPRESSION AND APPLICATION THEREOF” (priority 2021, published 2024).

The test system of one experiment is HBV HBsAg. As to the kind of experiment: Comparison and combined use of Ky-2208 and tenofovir (TDF) in HBV transgenic (HBV-Tg) mice, HBsAg. In kind it is in vivo. The note with it: Ky-2208 3 or 9 mpk sc single, TDF 15 mpk po daily, d7-d28. As for the experimental part:
Experimental procedures: 48 HBV-Tg male mice with a body weight of 25-35 g and a week age of 8-13 w, were raised in an animal room that meets the SPF standard, with a temperature of 16-26° C., a humidity of 40-70% and circulating light (12 hours in light and dark respectively), and were free to eat and drink water. The solvent for formulation of the compound was normal saline, and the concentration of the working solution was 0.75 mg/mL. […] The experiment consisted of 6 groups, including one control group ([…]) and 5 administration groups. The drug was administered once on the day of d0, and mice in each group were subcutaneously injected with 0.04 mL/10 g of the corresponding test solution on d0. Whole blood was collected through the orbital venous plexus of mice on d0 before administration and d7, d14, d21 and d28 after administration, and centrifuged at 3000×g for 5 minutes. Supernatant was sampled on d0, d7, d14, d21 and d28 to detect HBV HBsAg.

The test system of a further experiment is HBeAg. Kind of experiment: Ky-22 combined with entecavir or interferon in HepG2.2.15 cells, HBeAg. In kind it is cell-based, HBV. The note with it: 72 hours, ETV 0.1-10 μM, IFN-α 10-1000 IU/mL, Ky-22 0.125 μg/mL. The method, then:
(§1) The experiment was conducted in the widely used HepG2.2.15 cell line to evaluate the inhibitory effect of the RNA inhibitor of the present invention in combination with different concentrations of entecavir (ETV) or interferon (IFN-a) on HBV.
(§2) Experimental procedures: DMEM medium containing 10% fetal bovine serum was prepared. Media containing 10 nM RNA inhibitor Ky-22 was prepared from a culture medium. HepG2.2.15 cells were inoculated at a cell density of […] and cultured in the DMEM medium with 10% fetal bovine serum at 37° C. under 5% CO2 for 24 hours, added with the drug for intervention, and incubated for 72 hours. The supernatant was sampled to detect HBsAg, HBeAg and HBV DNA. The relative percentages of HBsAg, HBeAg, and HBV DNA in the sample intervention groups were calibrated by compared with the supernatant of HepG2.2.15 cells without intervention.

A further experiment relates to HBsAg. As to the kind of experiment: Ky-22 combined with entecavir or interferon in HepG2.2.15 cells, HBsAg. In kind it is cell-based, HBV. The note with it: 72 hours, ETV 0.1-10 μM, IFN-α 10-1000 IU/mL, Ky-22 0.125 μg/mL. The method, then:
as §1, §2

As to `CC(C)OC(=O)OCOP(=O)(CO[C@H](C)Cn1cnc2c(N)ncnc21)OCOC(=O)OC(C)C.O=C(O)/C=C/C(=O)O` [TDF, Tenofovir], the “reduction of HBsAg level” value in the experiment on HBV HBsAg is reported as “no inhibitory effect”.
`C=C1[C@H](CO)[C@@H](O)C[C@@H]1n1cnc2c(=O)[nH]c(N)nc21` [entecavir]: the “inhibitory effect on HBeAg” value in the experiment on HBeAg is recorded as “no significant inhibitory effect”. Further, the “inhibitory effect on HBsAg” value in the experiment with HBsAg is recorded as “no significant inhibitory effect”.
As to `C[C@H](Cn1cnc2c(N)ncnc21)OCP(=O)(O)O` [tenofovir (TDF), tenofovir], in the experiment with HBV HBsAg, the “reduction of HBsAg level” value is listed as “does not have the efficacy of reducing HBsAg level”.
